Earlier results, collected in patent publication US20260085040A1, “AMINO ACID AND CA[…] DERIVATIVES” (priority 2022, published 2026).

Tests used:
[1] = 10 patients with alcohol dependence per DSM-IV
[2] = controlled clinical environment, subjects with OCD

Structure (SMILES): CN(C)CCc1c[nH]c2cccc(OP(=O)(O)O)c12 [psilocybin]
- Alcohol use post psilocybin administration [1]: significant decrease in alcohol use
- Participants with biologically verified 7-day point-prevalence abstinence (6-month follow up): eighty
- Participants biologically verified as being abstinent (12-month follow-up): 67%
- Participants abstinent (follow-up 2.5 years after the target quit date): 75%
- Core OCD symptoms [2]: acute reductions in core OCD symptoms in several subjects
- Safety of administration [2]: safely administered
